The results in this text go back to US9078444B2, “Isothiazoline derivatives as insecticidal compounds” (Syngenta Participations AG, priority 2011, dated 2015).

Like-named read-outs stand apart in the source and are kept apart here.

Common to all, as to format: in vivo
Test [1] has as its system Spodoptera littoralis. The experiment in a line: Spodoptera littoralis (Egyptian cotton leafworm) cotton leaf disc test. Particulars: foliar, 72 h, 200 ppm sprayed on cotton leaf discs, mortality, feeding behavior, growth regulation 3 days after treatment. The procedure: Spodoptera littoralis (Egyptian Cotton Leafworm): Cotton leaf discs were placed on agar in a 24-well microtiter plate and sprayed with test solutions at an application rate of 200 ppm. After drying, the leaf discs were infested with […]. The samples were checked for mortality, feeding behavior, and growth regulation 3 days after treatment (DAT).

In test [2] the test system is Heliothis virescens. The experiment in a line: Heliothis virescens (tobacco budworm) egg test on artificial diet. Particulars: 96 h, 200 ppm (concentration in well 18 ppm), eggs on artificial diet, egg mortality, larval mortality, growth regulation after 4 days. Here is the method:
Heliothis virescens (Tobacco Budworm): Eggs (0-24 h old) were placed in 24-well microtiter plate on artificial diet and treated with test solutions at an application rate of 200 ppm (concentration in well 18 ppm) by pipetting. After an incubation period of 4 days, samples were checked for egg mortality, larval mortality, and growth regulation.

Test [3] has as its system Plutella xylostella. The experiment in a line: Plutella xylostella (diamond back moth) artificial diet test. The settings on record: 144 h, 200 ppm (concentration in well 18 ppm), L2 larvae, larval mortality and growth regulation after 6 days. Here is the method: Plutella xylostella (Diamond Back Moth): 24-well microtiter plate (MTP) with artificial diet was treated with test solutions at an application rate of 200 ppm (concentration in well 18 ppm) by pipetting. After drying, the MTPs were infested with L2 larvae (7-12 per well). After an incubation period of 6 days, samples were checked for larval mortality and growth regulation.

The test system of test [4] is Diabrotica balteata. The experiment in a line: Diabrotica balteata (corn root worm) artificial diet test. The settings on record: 120 h, 200 ppm (concentration in well 18 ppm), L2 larvae, larval mortality and growth regulation after 5 days. Here is the method:
Diabrotica balteata (Corn Root Worm): A 24-well microtiter plate (MTP) with artificial diet was treated with test solutions at an application rate of 200 ppm (concentration in well 18 ppm) by pipetting. After drying, the MTPs were infested with L2 larvae (6-10 per well). After an incubation period of 5 days, samples were checked for larval mortality and growth regulation.

The subject of test [5] is Thrips tabaci. The experiment in a line: Thrips tabaci (onion thrips) sunflower leaf disc test. Particulars: foliar, 168 h, 200 ppm sprayed on sunflower leaf discs, mixed ages, mortality after 7 days. The procedure: Thrips tabaci (Onion Thrips): Sunflower leaf discs were placed on agar in a 24-well microtiter plate and sprayed with test solutions at an application rate of 200 ppm. After drying, the leaf discs were infested with a thrips population of mixed ages. After an incubation period of 7 days, samples were checked for mortality.

Test [6] relates to Tetranychus urticae. The experiment in a line: Tetranychus urticae (two-spotted spider mite) bean leaf disc test. Particulars: foliar, 192 h, 200 ppm sprayed on bean leaf discs, mixed ages, egg, larval and adult mortality 8 days later. The source says:
Tetranychus urticae (Two-Spotted Spider Mite): Bean leaf discs on agar in 24-well microtiter plates were sprayed with test solutions at an application rate of 200 ppm. After drying, the leaf discs are infested with mite populations of mixed ages. 8 days later, discs are checked for egg mortality, larval mortality, and adult mortality.

Test [7] concerns Spodoptera littoralis. The experiment in a line: Spodoptera littoralis persistence test on sprayed cotton plants (increased safety profile / bio-degradability). The settings on record: Spodoptera littoralis, 12.5 ppm on cotton plants, 10 L3 larvae, mortality after 6 days incubation. Here is the method: Biological Examples Showing Increased Safety Profile:
Spodoptera littoralis (Egyptian Cotton Leafworm)
Cotton plants in the 5th leaf stage (around 5 weeks old) are treated in an automated turn table spray chamber. Plants are stored in the greenhouse length during the whole test period.
2, 16 and optionally 10 days after treatment 4 leaves from each sample are excised, placed into 14 cm plastic petri dishes on wet filter paper. The infestation of 10 L3-Spodoptera littoralis is made immediately afterwards. After an incubation period of 6 days the samples are checked for mortality.
In the following series of experiments the compounds of the invention are compared with the corresponding isoxazoline analogues from the prior art on Spodoptera littoralis (Egyptian cotton leafworm) performed as described in the method above.

Regarding `Cc1cc(C2=NSC(c3cc(Cl)c(Cl)c(Cl)c3)(C(F)(F)F)C2)ccc1C(=O)NCC(=O)NCC(F)(F)F` (centres unmarked) [Compound D1, 2-methyl-N-[2-oxo-2-(2,2,2-trifluoroethylamino)ethyl]-4-[5-(3,4,5-trichlorophenyl)-5-(trifluoromethyl)-4H-isothiazol-3-yl]benzamide], the pest or weed control at 200 ppm in test [1], in test [2], in test [3], in test [4], in test [5] and in test [6] was no less than 80% each time. Besides, the pest or weed control at 12.5 ppm in test [7] (48 h, leaves excised 2 days after treatment, read-out: Control after 2 days/%) is 100%; in test [7] (384 h, leaves excised 16 days after treatment, read-out: Control after 16 days/%) it was 10%.
